Results as given in patent US8609650B2, “Bridged bicyclic aryl and bridged bicyclic heteroaryl substituted triazoles useful as Axl inhibitors” (Rigel Pharmaceuticals, Inc., priority 2006, dated 2013).

Each molecule was assayed against T1, Axl (Homo sapiens, UniProt P30530) (assay: Phospho-Akt In-Cell Western Assay (ability to inhibit Axl activity)). Conditions: Hela cells, stimulated by Axl-antibody cross-linking, phospho-Akt chemiluminescence normalized to relative cell number.
T1 construct: endogenous in cells; host or cells: HeLa cells
T1 sequence (P30530 26-894): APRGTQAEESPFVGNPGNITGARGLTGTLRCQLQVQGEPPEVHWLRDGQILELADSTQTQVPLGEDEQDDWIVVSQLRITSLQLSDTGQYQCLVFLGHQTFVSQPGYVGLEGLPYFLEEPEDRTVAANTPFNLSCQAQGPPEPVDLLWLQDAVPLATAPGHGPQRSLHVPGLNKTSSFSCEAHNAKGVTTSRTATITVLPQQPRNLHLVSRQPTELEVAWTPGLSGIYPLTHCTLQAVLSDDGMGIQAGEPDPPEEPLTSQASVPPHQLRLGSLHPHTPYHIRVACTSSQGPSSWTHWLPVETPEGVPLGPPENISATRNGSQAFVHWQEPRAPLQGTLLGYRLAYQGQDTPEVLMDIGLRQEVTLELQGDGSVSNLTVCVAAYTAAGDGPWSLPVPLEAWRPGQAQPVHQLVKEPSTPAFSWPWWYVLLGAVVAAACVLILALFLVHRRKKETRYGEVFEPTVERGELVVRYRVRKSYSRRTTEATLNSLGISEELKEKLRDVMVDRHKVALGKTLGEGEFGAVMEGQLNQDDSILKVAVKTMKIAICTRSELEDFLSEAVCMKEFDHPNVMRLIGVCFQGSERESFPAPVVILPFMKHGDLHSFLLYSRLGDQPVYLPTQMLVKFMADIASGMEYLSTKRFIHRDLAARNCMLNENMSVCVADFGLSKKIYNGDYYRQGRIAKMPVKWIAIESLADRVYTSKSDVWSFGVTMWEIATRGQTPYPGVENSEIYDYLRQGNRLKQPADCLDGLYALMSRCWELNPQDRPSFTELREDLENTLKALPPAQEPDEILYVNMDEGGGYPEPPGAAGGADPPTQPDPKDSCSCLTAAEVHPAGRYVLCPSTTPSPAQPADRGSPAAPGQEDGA
Assay type: cell-based
Method: The compounds of the invention were tested in the following assay for their ability to inhibit Axl activity.
Phospho-Akt In-Cell Western Assay
• Cell culture plate: 96 well assay plate (Corning 3610), white, clear bottom, tissue-culture treated. • Cells: Hela cells. • Starvation medium: For Axl stimulation: 0.5% FCS (fetal calf serum) in DMEM, plus Axl/Fc (extracellular domain of AXL fused to immunoglobulin Fc region) (R&D, 154-AL) 500 ng/mL. • For EGF (epidermal growth factor) stimulation: 0.5% FCS in DMEM (Dulbecco's modified Eagles medium). • Poly-L-Lysine 0.01% solution (the working solution): 10 μg/ml, dilute In PBS (phosphate buffered saline). • Axl antibody cross-linking: • 1st: Mouse anti-Axl (R&D, MAB154). • 2nd: Biotin-SP-conjugated AffiniPure goat anti-mouse IgG (H+L) (Jackson ImmunoResearch #115-065-003). • Fixing buffer: 4% formaldehyde in PBS. • Wash buffer: 0.1% TritonX-100 in PBS. • Quenching buffer: 3% H2O2, 0.1% Azide in wash buffer, Azide and hydrogen peroxide (H2O2) are added fresh. • Blocking buffer: 5% BSA in TBST (tris buffered saline plus 0.1% Tween 20). • Primary antibody: Rabbit anti-human Phospho-Akt antibody (Cell Signaling 9271): 1×250 diluted in blocking buffer. • Secondary antibody: HRP (horse radish peroxidase)-conjugated Goat anti-Rabbit secondary, stock solution: Jackson ImmunoResearch (Goat anti-Rabbit HRP, #111-035-144) 1:1 diluted in glycerol, store at −20° C. The working solution: 1×2000 dilution of stock in blocking buffer. • Chemiluminescent working solution (Pierce, 37030): SuperSignal ELISA (enzyme linked immunosorbant assay) Pico Chemiluminescent substrate. • Crystal Violet solution: Stock: 2.5% Crystal violet in methanol, filtered and kept at ambient temperature. The working solution: dilute the stock 1:20 with PBS immediately before use. • 10% SDS: working solution: 5% SDS (sodium dodecylsulfate), diluted in PBS Methods: Day 1:
A 96 well TC (tissue culture treated) plate was coated with 10 μg/mL poly-L-Lysine at 37° C. for 30 min, washed twice with PBS, and air-dried for 5 minutes before cells were added. Hela cells were seeded at 10,000 cells/well and the cells were starved in 100 μL starvation medium containing Axl/Fc for 24 hrs.
The cells were pre-treated with test compounds by adding 100 μL of 2× test compound to the starvation medium on the cells. The cells were incubated at 37° C. for 1 hr before stimulation.
The cells were stimulated by Axl-antibody cross-linking as follows: A 5×1st/2nd Axl antibody mixture was made (37.5 μg/mL 1st/100 μg/mL 2nd) in starvation medium and nutated at 4° C. with thorough mixing for 1-2 hours for clustering. The resulting mix was warmed to 37° C. 50 μL of 5× Axl 1st/2nd of antibody cluster was added to the cells and the cells were incubated at 37° C. for 5 min.
After 5 minutes stimulation, the plate was flicked to remove medium and the plate was tapped onto paper towels. Formaldehyde (4.0% in PBS, 100 μL) was added to fix the cells and the cells were incubated at ambient temperature for 20 min without shaking.
The cells were washed with a plate washer buffer to remove the formaldehyde solution. The plate was flicked to removed excess wash buffer and tapped onto paper towels. Quenching buffer (100 μL) was added to each well and the cells were incubated at ambient temperature for 20 minutes without shaking.
The cells were washed with a plate washer buffer to remove the quenching buffer. Blocking buffer (100 μL) was added and the cells were incubated at ambient temperature for at least an hour with gentle shaking.
The cells were washed with a plate washer buffer and diluted primary antibody (50 μL) was added to each well (blocking buffer was added to the negative control wells instead). The plates were incubated overnight at 4° C. with gentle shaking.
The wash buffer was removed, diluted secondary antibody (100 μL) was added, and the cells were incubated at ambient temperature for 1 hour with gentle shaking. […]

Molecule	IC50
1-(5,8-dimethylmethano-8-methyl-5,6,7-trihydroquinazolin-2-yl)-N^3-(3-fluoro-4-(4-(pyrrolidin-1-yl)piperidin-1-yl)phenyl)-1H-1,2,4-triazole-3,5-diamine [Compound 21]	< 1000 nM
1-(5,8-methano-5,6,7,8-tetrahydroquinazolin-2-yl)-N^3-(4-(morpholin-1-yl)phenyl)-1H-1,2,4-triazole-3,5-diamine [Compound 5]	1000 to 10000 nM
1-((6R,8R)-6,8-dimethylmethano-5,6,7,8-tetrahydroquinoline-2-yl)-N^3-(3-fluoro-4-(4-(pyrrolidin-1-yl)piperidin-1-yl)phenyl)-1H-1,2,4-triazole-3,5-diamine [Compound 34]	< 1000 nM
Nc1nc(Nc2ccc(OCCN3CCCC3)cc2)nn1-c1ncc2c(n1)C1CCC2C1 (stereo not shown) [Compound 1, 1-(5,8-methano-5,6,7,8-tetrahydroquinazolin-2-yl)-N^3-(4-(2-(pyrrolidin-1-yl)ethoxy)phenyl)-1H-1,2,4-triazole-3,5-diamine]	> 20000 nM
Nc1nc(Nc2ccc(N3CCN(C4CCCCCC4)CC3)cc2)nn1-c1ncc2c(n1)C1CCC2C1 (stereo not shown) [Compound 10, N^3-(4-(4-cycloheptylpiperazin-1-yl)phenyl)-1-(5,8-methano-5,6,7,8-tetrahydroquinazolin-2-yl)-1H-1,2,4-triazole-3,5-diamine]	< 1000 nM
Nc1nc(Nc2ccc(N3CCC(N4CCCC4)CC3)c(F)c2)nn1-c1ncc2c(n1)C1CCC2C1 (stereo not shown) [Compound 11, 1-(5,8-methano-5,6,7,8-tetrahydroquinazolin-2-yl)-N^3-(3-fluoro-4-(4-(pyrrolidin-1-yl)piperidin-1-yl)phenyl)-1H-1,2,4-triazole-3,5-diamine]	< 1000 nM
CN1CCC(c2ccc(Nc3nc(N)n(-c4ncc5c(n4)C4CCC5C4)n3)cc2)CC1 (stereo not shown) [Compound 12, N^3-(4-(1-methylpiperidin-4-yl)phenyl)-1-(5,8-methano-5,6,7,8-tetrahydroquinazolin-2-yl)-1H-1,2,4-triazole-3,5-diamine]	> 20000 nM

The next lines start with the values.

IC50	Molecule
< 1000 nM	CCSc1nc2c(c(-n3nc(Nc4ccc(OCCN5CCCC5)cc4)nc3N)n1)C1CCC2C1 (stereo not shown) [Compound 2, 1-(2-ethylthio-5,8-methano-5,6,7,8-tetrahydroquinazolin-4-yl)-N^3-(4-(2-(pyrrolidin-1-yl)ethoxy)phenyl)-1H-1,2,4-triazole-3,5-diamine]
< 1000 nM	CN1CCCC(Oc2ccc(Nc3nc(N)n(-c4ncc5c(n4)C4CCC5C4)n3)cc2)C1 (stereo not shown) [Compound 3, (5,8-methano-5,6,7,8-tetrahydroquinazolin-2-yl)-N^3-(4-(1-methyl(piperidin-3-yl)oxy)phenyl)-1H-1,2,4-triazole-3,5-diamine]
< 1000 nM	CN1CCN(c2ccc(Nc3nc(N)n(-c4ncc5c(n4)C4CCC5C4)n3)cc2)CC1 (stereo not shown) [Compound 4, 1-(5,8-methano-5,6,7,8-tetrahydroquinazolin-2-yl)-N^3-(4-(4-methylpiperazin-1-yl)phenyl)-1H-1,2,4-triazole-3,5-diamine]
< 1000 nM	Nc1nc(Nc2ccc(N3CCN(C4CCCCC4)CC3)cc2)nn1-c1ncc2c(n1)C1CCC2C1 (stereo not shown) [Compound 6, 1-(5,8-methano-5,6,7,8-tetrahydroquinazolin-2-yl)-N^3-(4-(4-cyclohexanylpiperazin-1-yl)phenyl)-1H-1,2,4-triazole-3,5-diamine]
< 1000 nM	Nc1nc(Nc2ccc(N3CCN(C4CC5CCC4C5)CC3)cc2)nn1-c1ncc2c(n1)C1CCC2C1 (stereo not shown) [Compound 8, N^3-(4-(4-(bicyclo[2.2.1]heptan-2-yl)piperazin-1-yl)phenyl)-1-(5,8-methano-5,6,7,8-tetrahydroquinazolin-2-yl)-1H-1,2,4-triazole-3,5-diamine]
< 1000 nM	Nc1nc(Nc2ccc(N3CCN(C4CCCCCCC4)CC3)cc2)nn1-c1ncc2c(n1)C1CCC2C1 (stereo not shown) [Compound 9, N^3-(4-(4-cyclooctylpiperazin-1-yl)phenyl)-1-(5,8-methano-5,6,7,8-tetrahydroquinazolin-2-yl)-1H-1,2,4-triazole-3,5-diamine]
